Results as given in patent publication US20220071970A1, “QUINUCLIDINE-3-ONE DERIVATIVES AND THEIR USE IN CANCER TREATMENT” (Aprea Therapeutics AB, priority 2018, published 2022).
pIC50: −log10 of the molar value.

What was measured:
[1] = test system: SaOS-2 His273 mtp53 human osteosarcoma cell line; assay: In vitro efficacy study using the SaOS-2 His273 protocol (CellTiter-Glo viability, 72 h); format: cell-based; conditions: SAOS-2, growth suppression, 72 hours incubation, CellTiter-Glo, read-out: SaOS-2 His273 IC50
Experimental: SaOS-2 His273 mtp53 is a human osteosarcoma cell line which has been genetically engineered at OnkPat CCK to express His273 mutated p53.
3000 cells/well (50 μl) were seeded into masked (black or white with clear bottom) 96-well cell culture plates using Iscove's Modified Dulbecco's Medium supplemented with 10% heat inactivated (56° C. for 60 min) fetal calf serum. The plates were then incubated for 4 hours, allowing the cells to attach. The test compounds were dissolved in DMSO or water to a concentration of 0.01 M and then further diluted to desired concentrations using the cell medium. 50 μl of freshly diluted test compound from fresh stock was added to the wells. The plates were then incubated for 72 hours.
For viability detection, CellTiter-Glo® Luminescent Cell Viability Assay (CTG) was used. CTG is a homogeneous “add-mix-measure” format method of determining the number of viable cells in culture based on quantitation of the ATP present, an indicator of metabolically active cells. The luminescence was measured using the PerkinElmer Victorx4 instrument.
The average of the signal values for the untreated cells was calculated for each plate. The % of growth suppression was calculated as:
100−((Signal sample/Signal untreated cells)×100).
The results of the SaOs-2 His273 analyses were expressed as IC50 values, i.e. concentration that suppresses growth of at least 50% of the cells. The IC50 values of various compounds according to the invention and of some comparative compounds are shown in Table 1, Table 2, Table 3 and Table 4.

[2] = test system: MDA-MB-231-Luc human breast cancer cell line carrying mutant p53 (R280K); assay: In vivo efficacy study, orthotopic MDA-MB-231-Luc breast cancer xenograft in nude mice; design: species or system nude mice (Hsd:AthymicNude-Foxnlnu); conditions: 42 or 125 mg/kg intraperitoneally twice daily, 3 cycles of 5 days, compared to control animals
Experimental: A: Luciferase luminescence from mice xenografted with MDA-MB-231-Luc breast cancer cells. B: Tumor weight at day 33 after beginning of treatment.
The compound of Example 4 was administered intraperitoneally twice daily at 42 or 125 mg/kg to nude mice (Hsd:AthymicNude-Foxnlnu) ortotopically xenografted with the human breast cancer cell line MDA-MB-231-Luc, carrying mutant p53 (R280K). To make MDA-MB-231-Luc, the cell line MDA-MB-231 was stably transfected with a synthetic gene for firefly luciferase, Luc2 (pGL4, Promega). Thereby, the tumor load may be externally monitored by luminescence measurement (radiance values; photon/second/cm^2/steradian). 5×10^6 MBA-MB-231-luc cells were injected, and eight days later the animals were stratified into treatment groups and control, 8 animals in each group, based on luminescence measurement. Treatment was started on day 11 and done in 3 cycles of 5 days each, with 2 days recovery. Tumor progression was evaluated by non-invasive in vivo imaging during the second cycle (day 18) and at the end of treatment (day 32). On day 33, the animals were sacrificed and the tumors excised and weighed.

`O=C1C2CCN(CC2)C1CNC(=O)C(F)(F)F` (racemic) [Example 4, 2,2,2-trifluoro-N-((3-oxoquinuclidin-2-yl)methyl)acetamide] was tested, and the pIC50 [1] was 5.25, the “tumor cell migration as measured by radiance of luminescence (FIG. 1A)” value ([2]; imaging day 18 and day 32) was “reduced tumor cell migration compared to control animals” and the “tumor weight (FIG. 1B)” value ([2]; tumors excised day 33) was “reduced tumor weight compared to control animals”.
